Laboratory results as given in ChEMBL document CHEMBL1777684, “Synthesis and evaluation of antioxidant and antibacterial activities of new substituted bis(1,3,4-oxadiazoles), 3,5-bis(substituted) pyrazoles and isoxazoles” (Bioorg Med Chem Lett, 2011).
Active and inactive are the calls of the source. The rule behind the calls is not given here.

Assays:
[1] = Anti-lipid peroxidation activity ferric chloride-induced lipid peroxidation using egg yolk homogenate at 40 ug/ml by TBARS assay; format: physicochemical; conditions: tissue homogenate
[2] = tested on: Radical scavenging activity; experiment: Antioxidant activity assessed as DPPH radical scavenging activity at 10 ug/ml by UV-visible spectrophotometry; format: functional
Staphylococcus aureus = experiment: Antibacterial activity against Staphylococcus aureus NCIM 2079 at 100 ug/ml after 24 hrs by agar disc diffusion method; format: functional; conditions: for zone of inhibition at 100 µg/mL: NCIM 2079, 24 h, read-out: IZ
Bacillus subtilis = experiment: Antibacterial activity against Bacillus subtilis NCIM 2063 at 100 ug/ml after 24 hrs by agar disc diffusion method; format: functional; conditions: NCIM 2063, 24 h, read-out: IZ
Escherichia coli = experiment: Antibacterial activity against Escherichia coli NCIM 2065 at 100 ug/ml after 24 hrs by agar disc diffusion method; format: functional; conditions: for zone of inhibition at 100 µg/mL: NCIM 2065, 24 h, read-out: IZ
Pseudomonas aeruginosa = experiment: Antibacterial activity against Pseudomonas aeruginosa NCIM 5029 at 100 ug/ml after 24 hrs by agar disc diffusion method; format: functional; conditions: for zone of inhibition at 100 µg/mL: NCIM 5029, 24 h, read-out: IZ

Compound | Activity [1] | Activity [2] | zone of inhibition at 100 µg/mL (Staphylococcus aureus) | zone of inhibition at 100 µg/mL (Bacillus subtilis) | zone of inhibition at 100 µg/mL (Escherichia coli) | zone of inhibition at 100 µg/mL (Pseudomonas aeruginosa) | inhibition zone (IZ) (Escherichia coli) | inhibition zone (IZ) (Pseudomonas aeruginosa) | inhibition zone (IZ) (Staphylococcus aureus)
VITAMIN E | 70% |  |  |  |  |  |  |  | 
Clc1ccc(/C=N/Nc2cc(N/N=C/c3ccc(Cl)cc3)[nH]n2)cc1 |  | 40% | 4 mm | 6 mm | 4 mm | 5 mm |  |  | 
COc1cc(-c2nnc(Cc3nnc(-c4cc(OC)c(OC)c(OC)c4)o3)o2)cc(OC)c1OC | 44.3% |  | 7 mm | 3 mm |  |  | inactive | inactive | 
Clc1ccc(/C=N/Nc2cc(N/N=C/c3ccc(Cl)cc3)on2)cc1 | Not Active | 37.4% | 14 mm | 8 mm | 8 mm | 6 mm |  |  | 
c1ccc(-c2nnc(Cc3nnc(-c4ccccc4)o3)o2)cc1 | 33.4% | 41.3% | 7 mm | 10 mm | 5 mm | 13 mm |  |  | 
C(=N\Nc1cc(N/N=C/c2ccccc2)[nH]n1)/c1ccccc1 | 44% | 34.2% | 5 mm | 9 mm | 4 mm | 9 mm |  |  | 
COc1cc(/C=N/Nc2cc(N/N=C/c3cc(OC)c(OC)c(OC)c3)on2)cc(OC)c1OC | 48.4% | 54% | 13 mm | 10 mm | 11 mm | 9 mm |  |  | 
Oc1ccc(-c2nnc(Cc3nnc(-c4ccc(O)cc4)o3)o2)cc1 | 53.4% | 36% | 7 mm | 2 mm | 1 mm | 1 mm |  |  | 
CN(C)c1ccc(-c2nnc(Cc3nnc(-c4ccc(N(C)C)cc4)o3)o2)cc1 | 46.3% | 28% | 13 mm | 12 mm | 10 mm | 9 mm |  |  | 
O=[N+]([O-])c1ccc(/C=N/Nc2cc(N/N=C/c3ccc([N+](=O)[O-])cc3)[nH]n2)cc1 | Not Active | 74.2% | 9 mm | 7 mm | 11 mm | 8 mm |  |  | 
COc1ccc(-c2nnc(Cc3nnc(-c4ccc(OC)c(OC)c4)o3)o2)cc1OC |  | inactive | 10 mm | 11 mm | 10 mm | 9 mm |  |  | 
O=C(O)c1cn(C2CC2)c2cc(N3CCNCC3)c(F)cc2c1=O [CIPROFLOXACIN] |  |  | 29 mm | 18 mm |  | 18 mm |  |  | 
Clc1ccc(-c2nnc(Cc3nnc(-c4ccc(Cl)cc4)o3)o2)cc1 | 16.2% | 40% | 4 mm | 6 mm |  |  | inactive | inactive | 
COc1cc(/C=N/Nc2cc(N/N=C/c3cc(OC)c(OC)c(OC)c3)[nH]n2)cc(OC)c1OC |  | 52.4% | 17 mm | 12 mm |  | 9 mm | inactive |  | 
Oc1ccccc1-c1nnc(Cc2nnc(-c3ccccc3O)o2)o1 | 48.6% | 37% | 9 mm | 13 mm | 8 mm | 5 mm |  |  | 
CN(C)c1ccc(/C=N/Nc2cc(N/N=C/c3ccc(N(C)C)cc3)on2)cc1 | 54.5% | 90.6% | 20 mm | 15 mm | 10 mm | 12 mm |  |  | 
O=C1O[C@H]([C@@H](O)CO)C(O)=C1O |  | 93.2% |  |  |  |  |  |  | 
CN(C)c1ccc(/C=N/Nc2cc(N/N=C/c3ccc(N(C)C)cc3)[nH]n2)cc1 |  | 59.2% | 20 mm | 10 mm | 9 mm | 8 mm |  |  | 
COc1ccc(/C=N/Nc2cc(N/N=C/c3ccc(OC)cc3)[nH]n2)cc1 | 46.3% | 44.3% | 28 mm | 20 mm | 18 mm | 19 mm |  |  | 
COc1ccc(-c2nnc(Cc3nnc(-c4ccc(OC)cc4)o3)o2)cc1 | 40.5% | inactive | 9 mm | 8 mm | 6 mm | 7 mm |  |  | 
COc1ccc(/C=N/Nc2cc(N/N=C/c3ccc(OC)c(OC)c3)[nH]n2)cc1OC |  | 47.1% | 10 mm | 8 mm | 13 mm | 6 mm |  |  | 
Oc1ccc(/C=N/Nc2cc(N/N=C/c3ccc(O)cc3)[nH]n2)cc1 | 58.6% | 83% |  | 7 mm | 13 mm | 18 mm |  |  | inactive
